The record followed here is patent US9725445B2, “Cycloalkyl nitrile pyrazolo pyridones as Janus kinase inhibitors” (Merck Sharp & Dohme Corp., priority 2013, dated 2017).

For one assay, the target named is JAK2 (Homo sapiens (Human), UniProt O60674). Kind of assay: Jak biochemical HTRF assay, JAK2. The note with it: recombinant GST-tagged catalytic domain. On the procedure: Jak Biochemical HTRF Assay Protocol
The ability of compounds to inhibit the activity of JAK1, JAK2, JAK3, and Tyk2 was measured using a recombinant purified GST-tagged catalytic domain for each enzyme (Invitrogen JAK1 #M4290, JAK2 #M4290, JAK3 #M4290, Tyk2 #M4290) in an HTRF format biochemical assay. […] The basic assay protocol is as follows: First, 250 nL of diluted compounds in DMSO were dispensed into the wells of a dry 384-well Black plate (Greiner #781076) using a Labcyte Echo 555 acoustic dispenser. Subsequent reagent additions employed an Agilent Bravo. […] After equilibration, 2 μL of 10×ATP in 1× assay buffer was added to initiate the kinase reaction and the plates were shaken and then incubated at room temperature for 120 minutes. […] Plates were shaken and centrifuged and then incubated 60 minutes at room temperature and then read on a Perkin Elmer Envision (λex=337 nm, λem=665 and 615 nm, TRF delay time=20 μs). HTRF signal=10,000*665 nm reading/615 nm reading. After normalization to untreated controls, the percent inhibition of the HTRF signal at each compound concentration was calculated. The plot of percent inhibition versus the log of compound concentration was fit with a 4-parameter dose response equation to calculate IC50 values.
Final Reaction Conditions were:
Examples of the instant invention were evaluated in JAK1 and JAK2 in vitro binding assays.

In another assay the target is JAK1 (Homo sapiens (Human), UniProt P23458). The assay is described as follows: Jak biochemical HTRF assay, JAK1. The note with it: recombinant GST-tagged catalytic domain. On the technique in general: Time-resolved FRET reads energy transfer from a long-lived donor to a nearby acceptor.
Chain of JAK1 (P23458 875-1153): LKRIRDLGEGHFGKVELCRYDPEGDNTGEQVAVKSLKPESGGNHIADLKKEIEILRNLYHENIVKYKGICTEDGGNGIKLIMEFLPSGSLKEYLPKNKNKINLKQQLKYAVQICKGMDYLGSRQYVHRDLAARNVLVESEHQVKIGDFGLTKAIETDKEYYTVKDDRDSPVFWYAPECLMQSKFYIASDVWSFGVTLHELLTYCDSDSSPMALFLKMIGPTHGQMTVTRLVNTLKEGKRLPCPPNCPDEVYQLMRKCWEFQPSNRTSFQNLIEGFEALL
[1] abbreviates: HTRF biochemical assay, read-out: JAK2 IC50.
[2] abbreviates: HTRF biochemical assay, read-out: JAK1 IC50.
Setting [3] is: JAK2 IC50, HTRF biochemical assay.
The mark [4] stands for this setting: JAK1 IC50, HTRF biochemical assay.

Like-named read-outs stand apart in the source and are kept apart here.

Chain of JAK2 (O60674 849-1124): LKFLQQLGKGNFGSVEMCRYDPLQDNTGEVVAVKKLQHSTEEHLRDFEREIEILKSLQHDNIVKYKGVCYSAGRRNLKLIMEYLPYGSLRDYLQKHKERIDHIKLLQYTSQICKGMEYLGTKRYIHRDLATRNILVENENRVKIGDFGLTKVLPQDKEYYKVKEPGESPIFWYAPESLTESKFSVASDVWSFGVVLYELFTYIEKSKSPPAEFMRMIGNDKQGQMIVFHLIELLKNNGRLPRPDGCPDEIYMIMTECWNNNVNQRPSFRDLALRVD

The term IC50 denotes the concentration that gives 50% inhibition. Regarding `N#C[C@H]1CCCC[C@@H]1n1nc(Nc2ccc(C3CCCN3)cc2)c2c(=O)[nH]ccc21` (single isomer, unassigned) [Example 3-71, (1S,2S)-2-[4-oxo-3-({4-[(2S or 2R)-pyrrolidin-2-yl]phenyl}amino)-4,5-dihydro-1H-pyrazolo[4,3-c]pyridin-1-yl]cyclohexanecarbonitrile], the IC50 on JAK2 (setting [1]) came to 540 pM; at JAK1 (setting [2]), 270 pM.
Regarding `N#C[C@H]1CCCC[C@@H]1n1nc(Nc2ccc(C3CCCN3)cc2)c2c(=O)[nH]ccc21` (single isomer, unassigned) [Example 3-72, (1S,2S)-2-[4-oxo-3-({4-[(2R or 2S)-pyrrolidin-2-yl]phenyl}amino)-4,5-dihydro-1H-pyrazolo[4,3-c]pyridin-1-yl]cyclohexanecarbonitrile], the results for the IC50 on JAK2 (setting [1]) and at JAK1 (setting [2]) were 500 pM and 450 pM, respectively.
In the case of `N#C[C@H]1CCC[C@@H]1n1nc(Nc2ccc(C(N)C(F)(F)F)cc2)c2c(=O)[nH]ccc21` (single isomer, unassigned) [Example 3-103, (1S,2S)-2-[3-({4-[(1R or 1S)-1-amino-2,2,2-trifluoroethyl]phenyl}amino)-4-oxo-4,5-dihydro-1H-pyrazolo[4,3-c]pyridin-1-yl]cyclopentanecarbonitrile], the half-maximal inhibitory concentration (IC50) amounted to 700 pM on JAK2 (setting [1]) and 280 pM at JAK1 (setting [2]).
The like results for `N#C[C@H]1CCC[C@@H]1n1nc(Nc2ccc(C(N)C(F)(F)F)cc2)c2c(=O)[nH]ccc21` (single isomer, unassigned) [Example 3-104, (1S,2S)-2-[3-({4-[(1S or 1R)-1-amino-2,2,2-trifluoroethyl]phenyl}amino)-4-oxo-4,5-dihydro-1H-pyrazolo[4,3-c]pyridin-1-yl]cyclopentanecarbonitrile] were, in that order, 590 pM and 220 pM.
The like results for `CCNC(c1ccc(Nc2nn([C@H]3CCC[C@@H]3C#N)c3cc[nH]c(=O)c23)cc1)C(F)(F)F` (single isomer, unassigned) [Example 3-113, (1S,2S)-2-[3-({4-[(1R or 1S)-1-(ethylamino)-2,2,2-trifluoroethyl]phenyl}amino)-4-oxo-4,5-dihydro-1H-pyrazolo[4,3-c]pyridin-1-yl]cyclopentanecarbonitrile] were, in that order, 310 pM and 150 pM.
For `CCNC(c1ccc(Nc2nn([C@H]3CCC[C@@H]3C#N)c3cc[nH]c(=O)c23)cc1)C(F)(F)F` (single isomer, unassigned) [Example 3-114, (1S,2S)-2-[3-({4-[(1S or 1R)-1-(ethylamino)-2,2,2-trifluoroethyl]phenyl}amino)-4-oxo-4,5-dihydro-1H-pyrazolo[4,3-c]pyridin-1-yl]cyclopentanecarbonitrile] the same measures were 280 pM and 190 pM.
With `COC(C)(c1ccc(Nc2nn([C@H]3CCCC[C@@H]3C#N)c3cc[nH]c(=O)c23)cc1)C(F)(F)F` (single isomer, unassigned) [Example 3-125, (1S,2S)-2-(4-oxo-3-((4-((R or S)-1,1,1-trifluoro-2-methoxypropan-2-yl)phenyl)amino)-4,5-dihydro-1H-pyrazolo[4,3-c]pyridin-1-yl)cyclohexanecarbonitrile], the IC50 at JAK2 (setting [1]) amounted to 860 pM; at JAK1 (setting [2]), 320 pM.
The like results for `CC1c2cc(Nc3nn([C@H]4CCCC[C@@H]4C#N)c4cc[nH]c(=O)c34)ccc2S(=O)(=O)N1C` (single isomer, unassigned) [Example 3-126, (1S,2S)-2-(3-(((R or S)-2,3-dimethyl-1,1-dioxido-2,3-dihydrobenzo[d]isothiazol-5-yl)amino)-4-oxo-4,5-dihydro-1H-pyrazolo[4,3-c]pyridin-1-yl)cyclohexanecarbonitrile] were, in that order, 2500 pM and 77 pM.
For `CC1c2cc(Nc3nn([C@H]4CCCC[C@@H]4C#N)c4cc[nH]c(=O)c34)ccc2S(=O)(=O)N1C` (single isomer, unassigned) [Example 3-127, (1S,2S)-2-(3-(((R or S)-2,3-dimethyl-1,1-dioxido-2,3-dihydrobenzo[d]isothiazol-5-yl)amino)-4-oxo-4,5-dihydro-1H-pyrazolo[4,3-c]pyridin-1-yl)cyclohexanecarbonitrile] the same measures were 2600 pM and 330 pM.
For `N#C[C@H]1CCC[C@@H]1n1nc(Nc2ccc(C(N)C(F)(F)F)cc2)c2c(=O)[nH]ccc21` (single isomer, unassigned) [Example 3-136, (1S,2S)-2-[3-({4-[(1R or 1S)-1-amino-2,2,2-trifluoroethyl]phenyl}amino)-4-oxo-4,5-dihydro-1H-pyrazolo[4,3-c]pyridin-1-yl]cyclopentanecarbonitrile] the same measures were 700 pM and 280 pM.
Turning to `N#C[C@H]1CCC[C@@H]1n1nc(Nc2ccc(C(N)C(F)(F)F)cc2)c2c(=O)[nH]ccc21` (single isomer, unassigned) [Example 3-137, (1S,2S)-2-[3-({4-[(1S or 1R)-1-amino-2,2,2-trifluoroethyl]phenyl}amino)-4-oxo-4,5-dihydro-1H-pyrazolo[4,3-c]pyridin-1-yl]cyclopentanecarbonitrile], the IC50 at JAK2 (setting [1]) is 590 pM; at JAK1 (setting [2]), 220 pM.
In the case of `CC(C)(C)OC(=O)N1[C@@H]2CC[C@H]1C[C@@H](c1ccc(Nc3nn([C@H]4CCCC[C@@H]4C#N)c4cc[nH]c(=O)c34)cc1)C2` (single isomer, unassigned) [Example 3-165], the values for the IC50 at JAK2 (setting [3]) and at JAK1 (setting [4]) were 7900 pM and 2600 pM, respectively.
As for `CC(C)(C)OC(=O)N1[C@@H]2CC[C@H]1C[C@H](c1ccc(Nc3nn([C@H]4CCCC[C@@H]4C#N)c4cc[nH]c(=O)c34)cc1)C2` (single isomer, unassigned) [Example 3-166], the IC50 stood at 6500 pM on JAK2 (setting [3]) and 960 pM at JAK1 (setting [4]).
As to `N#CCC1(n2nc(Nc3ccc(C(N)C(F)F)cc3)c3c(=O)[nH]ccc32)CCCCC1` (single isomer, unassigned) [Example 9-1, (S or R)-2-(1-(3-(4-(1-Amino-2,2-difluoroethyl)phenylamino)-4-oxo-4,5-dihydro-1H-pyrazolo[4,3-c]pyridin-1-yl)cyclohexyl)acetonitrile], the IC50 was determined as 470 pM on JAK2 (setting [1]) and 190 pM on JAK1 (setting [2]).
For `N#CCC1(n2nc(Nc3ccc(C(N)C(F)F)cc3)c3c(=O)[nH]ccc32)CCCCC1` (single isomer, unassigned) [Example 9-2, (R or S)-2-(1-(3-(4-(1-Amino(-2,2-difluoroethyl)phenylamino)-4-oxo-4,5-dihydro-1H-pyrazolo[4,3-c]pyridin-1-yl)cyclohexyl)acetonitrile] the same measures were 510 pM and 220 pM.
The like results for `CC(O)(c1ccc(Nc2nn([C@H]3CCCC[C@@H]3C#N)c3cc[nH]c(=O)c23)cc1)C(F)(F)F` (single isomer, unassigned) [Example 15-11, (1S,2S)-2-[4-oxo-3-({4-[(1R or 1S)-2,2,2-trifluoro-1-hydroxy-1-methylethyl]phenyl}amino)-4,5-dihydro-1H-pyrazolo[4,3-c]pyridin-1-yl]cyclohexanecarbonitrile] were, in that order, 840 pM and 130 pM.
Consider `CC(O)(c1ccc(Nc2nn([C@H]3CCCC[C@@H]3C#N)c3cc[nH]c(=O)c23)cc1)C(F)(F)F` (single isomer, unassigned) [Example 15-12, (1S,2S)-2-[4-oxo-3-({4-[(1R or 1S)-2,2,2-trifluoro-1-hydroxy-1-methylethyl]phenyl}amino)-4,5-dihydro-1H-pyrazolo[4,3-c]pyridin-1-yl]cyclohexanecarbonitrile], for which the IC50 at JAK2 (setting [1]) came out at 840 pM; on JAK1 (setting [2]) it was 140 pM.
For `N#C[C@H]1CCCC[C@@H]1n1nc(Nc2ccc3c(c2)CNC3C(F)F)c2c(=O)[nH]ccc21` (single isomer, unassigned) [Example 15-27, (1S,2S)-2-(3-{[(1R or 1S)-1-(difluoromethyl)-2,3-dihydro-1H-isoindol-5-yl]amino}-4-oxo-4,5-dihydro-1H-pyrazolo[4,3-c]pyridin-1-yl)cyclohexanecarbonitrile] the same measures were 720 pM and 220 pM.
For `N#C[C@H]1CCCC[C@@H]1n1nc(Nc2ccc3c(c2)CNC3C(F)F)c2c(=O)[nH]ccc21` (single isomer, unassigned) [Example 15-28, (1S,2S)-2-(3-{[(1S or 1R)-1-(difluoromethyl)-2,3-dihydro-1H-isoindol-5-yl]amino}-4-oxo-4,5-dihydro-1H-pyrazolo[4,3-c]pyridin-1-yl)cyclohexanecarbonitrile] the same measures were 630 pM and 250 pM.
For `Cc1cc(Nc2nn([C@H]3CCCC[C@@H]3C#N)c3cc[nH]c(=O)c23)ccc1C(C(C)C)n1ccnn1` (single isomer, unassigned) [Example 15-37, (1S,2S)-2-[3-({3-methyl-4-[(1S or 1R)-2-methyl-1-(1H-1,2,3-triazol-1-yl)propyl]phenyl}amino)-4-oxo-4,5-dihydro-1H-pyrazolo[4,3-c]pyridin-1-yl]cyclohexanecarbonitrile] the same measures were 250 pM and 66 pM.
